Measurements: patent US12344610B2, “APOL1 inhibitors and methods of use” (Maze Therapeutics, Inc., priority 2022, dated 2025)

How the values were obtained:
[1] = test system: HEK293 clonal cell line overexpressing APOL1 G1; experiment: APOL1 G1 HEK293 cell rescue assay (Example B3); assay type: cell-based; details: Homo sapiens, HEK293, HEK293 clonal line overexpressing APOL1 G1; geometric mean of at least 2 runs; † = single run; ¥ = concentration at 50% rescue estimated (no sigmoidal curve)
Summary of the method: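 HEK293 clonal line overexpressing APOL1 G1; EC50 is half-maximal reversal of APOL1-induced cell death. Values are the geometric mean of ≥2 runs on separate days, each run the average of duplicate wells. Where no sigmoidal curve could be fitted, the concentration giving 50% rescue was estimated.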

[2] = test system: human immortalized podocytes inducibly expressing APOL1 G2; experiment: APOL1 G2 podocyte cell rescue assay (Example B4); assay type: cell-based; details: Homo sapiens, differentiated human podocytes, doxycycline-induced APOL1 G2, CellTiter-Glo; geometric mean of at least 2 runs; † = single run
Procedure: APOL1 G2 human immortalized podocyte viability assay for measurement of cytotoxicity reversal by compound (APOL1 G2 podocyte cell rescue assay).
Cell Handling. The hTERT-immortalized kidney podocyte cell line was procured from the laboratory of Dr. Moin Saleem at the University of Bristol, UK (Nephrology 17 (2012) 525-531; doi:10.1111/j.1440-1797.2012.01619.x; herein incorporated by reference in its entirety). Parental and engineered cell lines were cultured in RPMI 1640 media (Gibco, 11875093) with 10% Tet System Approved FBS (Takara, 631101). The engineered cell line was maintained under selection (2.5 μg/mL puromycin). Cell lines were maintained and engineered at 33° C. Cell cultures were transferred to 37° C. for 10 to 14 days to initiate differentiation (Nephrology 17 (2012) 525-531; doi:10.1111/j.1440-1797.2012.01619.x; herein incorporated by reference in its entirety). During this time, media was refreshed every 3 days. After differentiation, cells engineered to inducibly express APOL1 G2 were used in the podocyte cell rescue assay.
Cell Line Engineering. The APOL1 G2 coding sequence was cloned into the pLVX-TetOne-Puro vector and verified by sequencing (Genscript Biotech). This construct was designed to have a C-terminal HiBiT tag. Lentiviral packaging of the vector was conducted using the Lenti-X Packaging Single Shots (VSVG) system according to manufacturer instructions (Takara Bio, 631275). A stable cell line was generated by transfecting the parental podocyte cell line with the concentrated virus in media with 5 μg/mL polybrene (Sigma, TR-1003-G). Media was changed the following day. 72 hours post transfection, 2.5 μg/mL puromycin (Gibco, A1113803) was added to the cells and cells were maintained in selection media thereafter. This APOL1 G2 stable cellular pool was subjected to a stringent limiting dilution to generate a pure stable clone (Podocyte/pLVX-TetOne APOL1 G2/clone D10) capable of inducible expression of APOL1 G2.
Assay Setup. T175 flasks containing differentiated podocytes engineered to inducibly express APOL1 G2 (Podocyte/pLVX-TetOne APOL1 G2/clone D10) were washed once with 15 mL of DPBS (Thermo Fisher, 14190-144). These flasks were each trypsinized with 3 mL of prewarmed TrypLE Express (Gibco, 12605-010) and incubated at 37° C. with 5% CO2 until cells detached and neutralized with 7 mL of prewarmed assay media (RPMI 1640 media with 10% Tet System Approved FBS, no selection agent). Cells were pooled and the resulting suspension was gently mixed. The cell suspension was counted using a Countess Cell Counting Chamber (Invitrogen) and the cell concentration was adjusted to 240,000 cells/mL using assay media. Next, 25 μL of a 480 ng/mL working stock of doxycycline diluted in assay media was added to an assay ready plate. All experiments were performed in 384-well, white, solid bottom, tissue culture treated plates (Greiner, 781080). The assay ready compound plates were generated with duplicate 8-point compound dilution series that consisted of 3-fold stepwise dilutions (0.4% DMSO final). The plates were centrifuged at 1000 rpm for 1 minute. 25 μL of diluted cell suspension (final cell density=6,000 cells/well) was added to each well. The plates were centrifuged again at 1000 rpm for 1 minute and then incubated in a humidified incubator (37° C. with 5% CO2). After 95 hours, the assay plates were removed from the incubator and allowed to equilibrate to room temperature for 1 hour. CellTiter-Glo® reagent (Promega, G7570) was prepared according to the manufacturer's instructions. 25 μL of CellTiter-Glo® reagent was added to each well. Assay plates were sealed with foil and mixed for 5 minutes on an orbital shaker (500 rpm) to induce cell lysis. Plates were centrifuged at 1000 rpm for 1 minute. 10 minutes after CellTiter-Glo® reagent addition, an Envision plate reader (Perkin Elmer) was used to measure the luminescent signal of each assay plate. Collaborative Drug Discovery software was utilized for graphing data. […]

| SMILES | EC50 [1] [µM] | EC50 [2] [µM] |
| --- | --- | --- |
| CN1C(=O)C2(CCN(CCOc3ccc(C(=O)N4CCS(=O)(=O)CC4)c(C(F)(F)F)c3)CC2)c2cc(C#N)ccc21 [Compound 261, 1′-{2-[4-(1,1-dioxo-1λ^6-thiomorpholine-4-carbonyl)-3-(trifluoromethyl)phenoxy]ethyl}-1-methyl-2-oxo-1,2-dihydrospiro[indole-3,4′-piperidine]-5-carbonitrile] | 0.167 | 0.00229 |
| CS(=O)(=O)N1CC2(CN(C(=O)c3ccc(OCCN4CCC5(CC4)C(=O)Nc4ccc(Cl)cc45)cc3F)C2)C1 [Compound 273, 5-chloro-1′-[2-(3-fluoro-4-{6-methanesulfonyl-2,6-diazaspiro[3.3]heptane-2-carbonyl}phenoxy)ethyl]-1,2-dihydrospiro[indole-3,4′-piperidin]-2-one] | 0.206 | 0.0052 |
| C[C@]1(O)C[C@H](N2C(=O)CCc3cc(OCCN4CCC5(CC4)C(=O)Nc4ccc(Cl)cc45)cnc32)C1 (single isomer, unassigned) [Compound 307, 5-chloro-1′-[2-({7-oxo-8-[(trans)-3-hydroxy-3-methylcyclobutyl]-5,6,7,8-tetrahydro-1,8-naphthyridin-3-yl}oxy)ethyl]-1,2-dihydrospiro[indole-3,4′-piperidin]-2-one] | 0.07 | 0.00261 |
| CS(=O)(=O)C1CN(C(=O)c2ccc(OCCN3CCC4(CC3)C(=O)Nc3ccc(Cl)cc34)cc2F)C1 [Compound 233, 5-chloro-1′-{2-[3-fluoro-4-(3-methanesulfonyl-azetidine-1-carbonyl)phenoxy]ethyl}-1,2-dihydrospiro[indole-3,4′-piperidin]-2-one] | 0.244 | 0.00425 |
| CC(O)c1ncc(OCCN2CCC3(CC2)C(=O)Nc2ccc(C(F)F)cc23)cc1C(F)(F)F (single isomer, unassigned) [Compound 287, 5-(difluoromethyl)-1′-[2-({6-[(1S) or (1R)-1-hydroxyethyl]-5-(trifluoromethyl)pyridin-3-yl}oxy)ethyl]-1,2-dihydrospiro[indole-3,4′-piperidin]-2-one] | 0.0858 | 0.0177 |
| O=C1Nc2ccc(Cl)cc2C12CCN(CCOc1cnc(N3CC(O)C3)nc1)CC2 [Compound 301, 5-chloro-1′-(2-{[2-(3-hydroxyazetidin-1-yl)pyrimidin-5-yl]oxy}ethyl)-1,2-dihydrospiro[indole-3,4′-piperidin]-2-one] | 0.19 | 0.0669 |
| O=C(c1ccc(OCCN2CCC3(CC2)C(=O)Nc2ccc(Cl)cc23)cc1F)N1CCS(=O)(=O)CC1 [Compound 232, 4-[4-(2-{5-chloro-2-oxo-1,2-dihydrospiro[indole-3,4′-piperidin]-1′-yl}ethoxy)-2-fluorobenzoyl]-1λ^6-thiomorpholine-1,1-dione] | 0.137 | 0.00217 |
| CC1(O)CN(c2nccc3cc(OCCN4CCC5(CC4)C(=O)Nc4ccc(Cl)cc45)cnc23)C1 [Compound 306, 5-chloro-1′-(2-{[8-(3-hydroxy-3-methylazetidin-1-yl)-1,7-naphthyridin-3-yl]oxy}ethyl)-1,2-dihydrospiro[indole-3,4′-piperidin]-2-one] | 0.245 | 0.00194 |
| CS(=O)(=O)c1ccc(OCCN2CCC3(CC2)C(=O)N(CCO)c2ccc(Br)cc23)cc1 [Compound 24, 5-bromo-1-(2-hydroxyethyl)-1′-[2-(4-methanesulfonylphenoxy)ethyl]-1,2-dihydrospiro[indole-3,4′-piperidin]-2-one] | 0.609 | 0.0374 |
| C[C@]1(O)C[C@@H](N2C(=O)CCc3cc(OCCN4CCC5(CC4)C(=O)Nc4ccc(C(F)F)cc45)cnc32)C1 [Compound 274, 5-(difluoromethyl)-1′-[2-({7-oxo-8-[(cis)-3-hydroxy-3-methylcyclobutyl]-5,6,7,8-tetrahydro-1,8-naphthyridin-3-yl}oxy)ethyl]-1,2-dihydrospiro[indole-3,4′-piperidin]-2-one] | 0.0999 | 0.0188 |
